Measured values as given in patent US20140309295A1, “ANTIEPILEPTIC, HYPOCHOLESTEROLEMIC AND NEUROPROTECTIVE COMPOUND” (NEURON BIOPHARMA, S.A., priority 2009, published 2014).

Assays:
[1] = tested on: human neuroblastoma SK-N-MC cells; assay: Protection against neuronal death induced by inhibition of succinate dehydrogenase (3-NP), WST-1; type: cell-based; conditions: 40 μM NST0037; 30 μM 3-NP
Method: (§1) The assay was performed on human neuroblastoma SK-N-MC cells in culture from the American Type Culture Collection (ATCC), in all cases strict rules of sterility were followed and the manipulation was performed in class II biological safety cabinets following European standard EN 12469. The cells were maintained in the following culture medium: Minimum Essential Medium Eagle (MEM) supplemented with 1 mM sodium pyruvate, 2 mM L-glutamine, 0.1 mM non-essential amino acids, 0.05 mg/ml gentamicin and 10% fetal bovine serum.
The inhibition caused by compound NST0037 of cell death caused by treatment with 3-Nitropropionic (3-NP) acid was analyzed. 3-NP is an irreversible inhibitor of the succinate dehydrogenase enzyme which in animal models causes oxidative stress and apoptotic cell death in the striatum, which mimics neurochemical and anatomical changes associated with Huntington's disease (HD). […]
(§2) The cells were incubated (at 37° C. and 5% CO2) with these treatments for 22 hours, after which time the WST-1 reagent (Roche) was added. […] The formazan which is formed can be detected colorimetrically since it has an absorbance of 440 nm. The reading was taken in a plate reader at 440 nm 2 hours after adding the reagent.

adult zebrafish [2] = assay: Single-dose toxicity assay (24 hours exposure in water) in adult zebrafish; conditions: 14 days post-treatment
Excerpt: Subsequently they were fed like the rest of the animals. • Weight of the animals: they were weighed at time 0 (before the treatment), at 7 and at 14 days post-treatment.
In this case, the weight of the animals of the different study groups at three established times: before starting the treatments (0 dpt), at day 7 post-treatment and at day 14 post-treatment, was used as a toxicity parameter. […] To that end, the fish were sacrificed at 14 days post-treatment (previously anesthetized) and the samples (whole fish) were included in paraffin. The hematoxylin-eosin staining was subsequently performed in order to conduct the histopathological studies, obtaining a minimum of 6 longitudinal sections per animal, for the purpose of collecting different study areas of the same organ. The following organs were studied: brain, kidney, pancreas, intestine, eye, gills, ovary, testicle, muscle and liver.

[3] = tested on: human neuroblastoma SK-N-MC cells; assay: Protection against neuronal death induced by inhibition of PP1 (okadaic acid), WST-1; type: cell-based; conditions: 40 μM NST0037; 20 nM okadaic acid
Method: as §1
The inhibition caused by compound NST0037 of cell death caused by the treatment with okadaic acid (OA) which inhibits the activity of protein phosphatase 1 (PP1) was analyzed. OA is one of the most used drugs for studying the phosphorylation mechanism of the tau protein, involved in the pathogenesis and progression of AD. The inhibition of PP1 causes cytoskeleton alterations and mitochondrial damage. […]
as §2

adult zebrafish [4] = assay: Lethality by constant exposure in water (4 days) in adult zebrafish (OECD 203); type: in vivo; conditions: for histopathology: ovary / Mortality (dead animals/total): 4 days
Method: (§3) The object of this assay is to determine the acute lethal toxicity of a substance on freshwater fish. Acute toxicity is the distinguishable adverse effect induced in an organism as a result of the exposure to a given substance for a short time period (days).
(§4) The deaths of the animals under study during the entire time of the assay were recorded as a toxicity parameter.
(§5) To that end, the fish that survived the treatment were sacrificed at 4 days post-treatment (previously anesthetized) and the samples (whole fish) were included in paraffin. The hematoxylin-eosin staining was subsequently performed in order to conduct the histopathological studies, obtaining a minimum of 6 longitudinal sections per animal, for the purpose of collecting different study areas of the same organ. The following organs were studied: brain, kidney, pancreas, intestine, eye, gills, ovary, testicle, muscle and liver.

[5] = as above; type: in vivo; conditions: zebrafish, in vivo; 4 days of continuous treatment in water
Method: as §3, §4, §5

[6] = tested on: CD1 mice inoculated with MPTP (subchronic); assay: Subchronic MPTP model of Parkinson's disease in mice; type: in vivo
Method: All the animals included for the experimental process were 12-week old males of the CD1 strain. The experiments were conducted strictly following the Guidance on the Operation of Animals (Scientific Procedures, Act. 1986). The animals had their respective quarantine period and were treated with maximum precaution to minimize possible contaminations during inoculations and handling.
Twenty animals were used in this assay and the treatments were all conducted by intraperitoneal (i.p.) route with a volume of 100 μl, according to the following regimens: • i) PBS+MPTP+PBS regimen: 10 animals were initially treated with a daily dose for 2 days of PBS, from the second day onwards the animals were inoculated with 1 daily dose of MPTP at 30 mg/Kg for 5 days, at intervals of 2 hours by i.p. route. For the next 21 days they were administered 3 weekly doses of PBS. • ii) NST0037+MPTP+NST0037 regimen: 10 animals were initially treated with a daily dose for 2 days of NST0037 at 50 mg/kg, from the second day onwards the animals were inoculated with 1 daily dose of MPTP at 30 mg/Kg for 5 days, at intervals of 2 hours by i.p. route. For the next 21 days they were administered 3 weekly doses of NST0037 at 50 mg/kg.
Seven days before starting the treatments and at 7, 14 and 21 days post-inoculation of MPTP, the animals were subjected to a locomotor resistance test referred to as the Rotarod test for 2 minutes, recording the time the animals resisted walking over a cylinder which increased its speed from 4 to 40 r.p.m.
Once the treatment time of 21 days ended, the animals were sacrificed and the brains were dissected. The brain samples were processed and included in paraffin. For the analysis of the presence of dopaminergic neurons in the substantia nigra, the immunohistochemistry against the tyrosine-hydroxylase (TH) protein was performed in 5 μm thick sagittal sections.
Once the treatment time of 21 days ended, the animals were sacrificed and the brains were dissected. The brain samples were processed and included in paraffin. […]

**Q.** What does the source list for CCC(CC)C(=O)O[C@H]1C[C@@H](C)C=C2C=C[C@H](C)[C@H](CC[C@@H]3C[C@@H](O)CC(=O)O3)[C@H]21 [NST0037, (1S,2S,6R,8S,8aR)-1,2,6,7,8,8a-hexahydro-3,7-dimethyl-8-[2-[(2R,4R)-tetrahydro-4-hydroxy-6-oxo-2H-pyran-2-yl]ethyl]-1-naphthalenyl-2-ethyl-butyrate]?
**A.** protection against death caused by 3-NP [1]: 41%; histopathology: intestine (adult zebrafish [2]; 2000 mg/Kg): Atrophy signs in the intestinal villi; histopathology: liver (adult zebrafish [2]; 2000 mg/Kg): discrete inflammation areas; weight of the animals (adult zebrafish [2]; 2000 mg/kg, 24 hours exposure in water): did not modify the weight; protection against death caused by OA [3]: 57%; histopathology: ovary (adult zebrafish [4]; 30 mg/kg): not being observed; histopathology: ovary (adult zebrafish [4]; 100 mg/Kg): presented ovarian damage; Mortality (dead animals/total) (adult zebrafish [4]; Dose 1 mg/kg): 0/7; Mortality (dead animals/total) (adult zebrafish [4]; Dose 3.2 mg/kg): 0/7; Mortality (dead animals/total) (adult zebrafish [4]; Dose 10 mg/kg): 0/7; Mortality (dead animals/total) (adult zebrafish [4]; Dose 32 mg/kg): 0/7; Mortality (dead animals/total) (adult zebrafish [4]; Dose 100 mg/kg): 1/7; percentage of mortality (adult zebrafish [4]; day 4 post-treatment (100 mg/kg group)): 14%; LD50 at 4 days [5]: > 100 mg/kg; motor resistance (Rotarod test) ([6]; NST0037+MPTP+NST0037, 50 mg/kg i.p., MPTP 30 mg/Kg daily 5 days, up to 21 days): prevents the motor deterioration of the animals; dopaminergic neurons (tyrosine-hydroxylase) in substantia nigra ([6]; NST0037+MPTP+NST0037, 21 days): larger number of TH-positive cells; lipid peroxidation (HNE) in neurons of substantia nigra ([6]; NST0037+MPTP+NST0037, 21 days): modest number of isolated neurons with HNE-positive labeling
